ChEMBL document CHEMBL1128926, “The synthesis of a hematoregulatory agent based on HP-5B containing an effective, achiral cystine replacement” (1996)
Positions of bridges follow the written chain, without caps; N, C: chain ends. Non-standard residues stand in square brackets, D forms with d. Residues, ends and D or L forms follow the SMILES beside them. Chains are numbered I, II in the order given. pGlu = O=C1CC[C@@H](C(=O)O)N1

assay: Compound was evaluated for the production of HSF activity from C6.4 stromal cells using a murine CFU-GM assay.; assay type: functional, Mus musculus

SMILES | HSF activity x10e2 [ml]
NCCCC[C@H](NC(=O)[C@H](CSSC[C@H](NC(=O)[C@H](CC(=O)O)NC(=O)[C@H](CCC(=O)O)NC(=O)[C@@H]1CCC(=O)N1)C(=O)N[C@@H](CCCCN)C(=O)O)NC(=O)[C@H](CC(=O)O)NC(=O)[C@H](CCC(=O)O)NC(=O)[C@@H]1CCC(=O)N1)C(=O)O (I: [pGlu]EDCK-OH / II: [pGlu]EDCK-OH; disulfide I:4-II:4) | 700
NCCCC[C@H](NC(=O)[C@H](CCCC[C@H](NC(=O)[C@H](CC(=O)O)NC(=O)[C@H](CCC(=O)O)NC(=O)[C@@H]1CCC(=O)N1)C(=O)N[C@@H](CCCCN)C(=O)O)NC(=O)[C@H](CC(=O)O)NC(=O)[C@H](CCC(=O)O)NC(=O)[C@@H]1CCC(=O)N1)C(=O)O [GLASPIMOD] | 14300
NCCCC[C@H](NC(=O)CN(CCCCN(CC(=O)N[C@@H](CCCCN)C(=O)O)C(=O)[C@H](CC(=O)O)NC(=O)[C@H](CCC(=O)O)NC(=O)[C@@H]1CCC(=O)N1)C(=O)[C@H](CC(=O)O)NC(=O)[C@H](CCC(=O)O)NC(=O)[C@@H]1CCC(=O)N1)C(=O)O | 21700
